Assay results reported in patent EP0423727B1, “Silver halide color photographic material containing colored coupler” (FUJI PHOTO FILM CO., LTD., priority 1989, dated 1991).

Assay: spectral absorption of the colored coupler in methanol
Assay type: physicochemical
Protocol: 10.1 g of compound c synthesized by the method described in U.S. Patent 4,138,258 was dissolved in 60 ml of N,N-dimethylformamide and 60 ml of methyl cellosolve. While cooling the resulting solution with ice, 4.3 ml of concentrated hydrochloric acid was added thereto and a solution of 1.84 g of sodium nitrite in 5 ml of water was added dropwise thereto to prepare a diazonium solution. 60 ml of methyl cellosolve and 20 ml of water were added to 7.8 g of the compound b and 8.2 g of sodium acetate. While stirring the resulting solution under ice cooling, the above diazonium solution was added dropwise thereto. After dropwise addition, the mixture was stirred for one hour and then at room temperature for 2 hours. The precipitated crystal was recovered by filtration, washed with water, dried and dispersed in 500 ml of methanol. The dispersion was heated to reflux for one hour and then allowed to stand to cool it. The crystal was recovered by filtration, washed with methanol and dried to give 13.6 g of the desired coupler (1) as a red crystal with a melting point of 269 to 272°C (decomposition). The structure of the compound was confirmed by ¹HNMR spectrum, mass spectrum and elemental analysis.
75 ml of methyl cellosolve and 26 ml of water were added to 10.1 g of the compound b and 10.7 g of sodium acetate. While stirring the resulting solution under ice cooling, the above diazonium solution was added dropwise thereto. After dropwise addition, the mixture was stirred for one hour and then at room temperature for 2 hours. The precipitated crystal was recovered by filtration and dispersed in 200 ml of methanol. A solution of 2.2 g of sodium hydroxide in 10 ml of water was added dropwise thereto. The mixture was stirred for 3 hours and neutralized with concentrated hydrochloric acid. The precipitated crystal was washed with water and then methanol and dried. The resulting crude crystal was purified from hot methanol in the same manner as in Synthesis Example 1 to give 14.8 g of the desired coupler (3) with a melting point of 246 to 251°C (decomposition). […]

With `CCCCCCCCC(CCCCCC)COCCCNC(=O)c1cc(OCCOc2ccc(N=Nc3c(C)c(C#N)c(=O)n(-c4ccccc4C(=O)O)c3O)cc2)c2ccccc2c1O` (stereo not drawn) [(22)] the “spectral absorption characteristics as a yellow colored coupler” value was “good”, the maximum absorption wavelength (in methanol) was 458.2 nm and the molecular extinction coefficient (in methanol) was 42800.
